Test results as given in patent US20230047825A1, “ANTIMICROBIAL PEPTIDES” (priority 2019, published 2023).
Values after ≈ are worked out from the molar mass of the structure shown. Read-outs that look alike come from different tables or passages of the source. Marks after values point to notes of the source that are not given here. Where a SMILES comes first, the peptide text is derived from it.

Key:
[1] = tested on: EMR Staphylococcus aureus-15 (EMRSA-15); type: cell-based; details: EMRSA15
[2] = tested on: Acinetobacter baumannii AYE; type: cell-based; details: AYE
[3] = tested on: VS Enterococcus faecalis NCTC 775; test: Antibacterial activity assay (broth microdilution MIC); type: cell-based
[4] = tested on: Pseudomonas aeruginosa PA01; test: as above; type: cell-based
[5] = tested on: human red blood cells; test: Haemolysis assay; details: red cells of human, 1 h
Outline: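 Peptide titrations in PBS incubated with fresh human red blood cells for 1 h at 37 C; supernatant OD550 read after removing intact cells. % haemolysis scaled between PBS-only (0%) and 0.1% Triton-X-100 (100%) controls; mean and SE of three biological replicates.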

[6] = tested on: VR Enterococcus faecium NCTC 12204; test: Antibacterial activity assay (broth microdilution MIC); type: cell-based; details: VRE12204, in µg/mL
[7] = Electrophysiology (Port-a-Patch patch-clamp) on model membranes; details: DPhPG
Source text: The depth of insertion into each membrane is shown as the Z-position for each residue, averaged over all four peptides, relative to the phosphate group plane in the upper POPE/POPG (A/E/I) or POPG (C/G/K) bilayer leaflet in six MD simulations. Positive or negative values indicate the peptides are below or above the phosphate group. Representative current traces illustrating membrane activity when DPhPE/DPhPG (B/F/J) or DPhPG (D/H/L) model membranes are challenged with each peptide at the indicated concentration (lowest concentration that induced detectable activity). Data is for pleurocidin (A-D), pleurocidin-KR (E-H) and pleurocidin-VA (I-L). Membrane disordering by each peptide in mixed POPE/POPG bilayers is shown with data obtained from ^2H solid-state NMR (M/N) or from MD simulations where order parameters are calculated for all lipids within 4 Å of a peptide (O/P).
Molecular dynamics simulations. Simulations were carried out on either the ARCHER Cray XC30 supercomputer, or Dell Precision quad core T3400 or T3500 workstations equipped with a 1 kW Power supply (PSU) and two NVIDA PNY GeForce GTX570 or GTX580 graphics cards using Gromacs.^53 The CHARMM36 all-atom force field was used in all simulations^54-56. All simulations were run, as described previously^20 and for a total of 200 nanoseconds and repeated twice, with peptides inserted at different positions and orientations, giving a total of approximately 4.0 μs simulation. Liposome preparation and circular dichroism (CD) spectroscopy. Small unilamellar vesicles (SUV) were produced and far-UV spectra of the peptides obtained as described previously^20 using a Chirascan Plus spectrometer (Applied Photophysics, Leatherhead, UK) with samples maintained at 310 K. For liposome experiments the lipid concentration was 5 mM and a peptide to lipid molar ratio of 1:100 was maintained while the SDS micelles concentration was 20 mM with 200 μM peptide. Electrophysiology experiments (Patch-clamp). Patch clamp experiments were performed using the Port-a-Patch® (Nanion Technologies GmbH, Munich, Germany) with giant unilamellar vesicles (GUVs) composed of DPhPE/DPhPG (60:40, mol:mol) or DPhPG prepared by the electroformation method using the Nanion Vesicle Prep Pro setup (Nanion Technologies GmbH, Munich, Germany) as described previously.^20
Synergy experiments were performed following a checkerboard protocol.

[8] = tested on: Pseudomonas aeruginosa NCTC 13437; test: Antibacterial activity assay (broth microdilution MIC); type: cell-based; details: PA13437, in µg/mL
[9] = tested on: MS Staphylococcus aureus ATCC 9144; type: cell-based
[10] = tested on: Escherichia coli NCTC 12923; type: cell-based
[11] = tested on: VRE12201; test: Antibacterial activity assay (broth microdilution MIC); type: cell-based, Enterococcus faecalis; details: medium and unit inferred
Source text: Antibacterial activity assay.
The bacterial strains used are as in the above examples. A table of strains is provided below to aid understanding.

[12] = tested on: Klebsiella pneumoniae M6; type: cell-based
[13] = tested on: Acinetobacter baumannii ATCC 17978; type: cell-based; details: in µg/mL; for MIC, Stability in serum (MH): Ab17978
[14] = untitled table, medium/unit inferred, values match RPMI of Table 2
[15] = medium and unit not given, in µg/mL
[16] = untitled table, medium/unit not given, values match RPMI of Table 2, in µg/mL
[17] = untitled table, medium/unit not given, values match RPMI of Table 2

CC(C)C[C@H](NC(=O)[C@H](Cc1ccc(O)cc1)NC(=O)[C@H](Cc1c[nH]cn1)NC(=O)[C@@H](NC(=O)[C@H](CC(C)C)NC(=O)[C@H](C)NC(=O)[C@H](C)NC(=O)[C@H](CCCCN)NC(=O)CNC(=O)[C@H](C)NC(=O)[C@H](Cc1c[nH]cn1)NC(=O)[C@H](CCCCN)NC(=O)CNC(=O)[C@H](C)NC(=O)[C@H](Cc1c[nH]cn1)NC(=O)[C@H](C)NC(=O)[C@H](C)NC(=O)[C@H](CCCCN)NC(=O)[C@H](CCCCN)NC(=O)[C@H](Cc1ccccc1)NC(=O)[C@H](Cc1ccccc1)NC(=O)[C@H](CO)NC(=O)CNC(=O)[C@H](Cc1c[nH]c2ccccc12)NC(=O)CN)[C@@H](C)O)C(N)=O [Pleurocidin-VA] (H-GWGSFFKKAAHAGKHAGKAALTHYL-NH2; N-terminus assumed)
MIC on initial panels ([1]; medium and unit inferred): 64 µg/mL (≈ 24.1 µM)
MIC [1, 14]: 32 µg/mL (≈ 12.1 µM)
MIC, Peptide concentration [2]: 16 µg/mL (≈ 6.03 µM)
MIC, Stability in serum (MH) ([2]; No serum): 2 µg/mL (≈ 0.754 µM)
MIC, Stability in serum (MH) ([2]; Serum (10% fetal bovine serum)): 4 µg/mL (≈ 1.51 µM)
MIC on initial panels [2, 15]: 2
MIC [2, 16]: 16
MIC, Peptide concentration ([3]; Mueller-Hinton broth): 64-128 (NG) μg/ml
MIC on initial panels ([3]; VSE775, medium and unit not given, in µg/mL): 64-128
MIC, Stability in serum (MH) ([4]; No serum, in µg/mL): 16*
MIC, Stability in serum (MH) ([4]; Serum (10% fetal bovine serum), in µg/mL): >128
MIC on initial panels [4, 15]: 16-32
MIC [4, 14]: > 32 µg/mL
Toxicity HC50, Peptide concentration [5]: >>400 μg/ml
MIC on initial panels ([6]; medium and unit not given): 32-64
MIC [6, 17]: 32
Peptide concentration necessary to start membrane activity [7]: 2.5 µM
MIC, Stability in serum (MH) ([8]; No serum): 16*
MIC, Stability in serum (MH) ([8]; Serum (10% fetal bovine serum)): >128
MIC on initial panels ([8]; medium and unit not given): 32
MIC [8, 17]: >32
MIC, Peptide concentration ([9]; ATCC 9144): 8 µg/mL (≈ 3.01 µM)
MIC on initial panels ([9]; MSSA9144, medium and unit inferred): 8 µg/mL (≈ 3.01 µM)
MIC ([9]; MSSA9144, untitled table, medium/unit not given, values match RPMI of Table 2, in µg/mL): 32
MIC, Stability in serum (MH) ([10]; EC12923, No serum): 1 µg/mL (≈ 0.377 µM)
MIC, Stability in serum (MH) ([10]; EC12923, Serum (10% fetal bovine serum)): 1 µg/mL (≈ 0.377 µM)
MIC on initial panels ([10]; EC12923, medium and unit not given, in µg/mL): 1
MIC ([10]; EC12923, untitled table, medium/unit not given, values match RPMI of Table 2, in µg/mL): 32
MIC, Peptide concentration ([10]; NCTC 12923): 1 µg/mL (≈ 0.377 µM)
MIC on initial panels [11]: > 128 µg/mL
MIC, Stability in serum (MH) ([12]; No serum): 16 µg/mL (≈ 6.03 µM)
MIC, Stability in serum (MH) ([12]; Serum (10% fetal bovine serum)): 8 µg/mL (≈ 3.01 µM)
MIC on initial panels [12, 15]: 4-8
MIC [12, 16]: 32
MIC on initial panels ([13]; AB17978, medium and unit not given): 1-2
MIC ([13]; AB17978, untitled table, medium/unit not given, values match RPMI of Table 2): 32
MIC, Stability in serum (MH) ([13]; No serum): 2
MIC, Stability in serum (MH) ([13]; Serum (10% fetal bovine serum)): 4
